According to patent publication US10105351B2, “Neurofibromatoses therapeutic agents and screening for same” (University of Central Florida Research Foundation, Inc., priority 2012, dated 2018):
Where a name gives a salt, the structure may show the parent alone.

Key:
[1] = tested on: normal nf2^flox2/flox2 Schwann cells; assay: Selectivity assay: cell viability of normal Schwann cells; settings: 10 uM; one assay with mouse nf2^flox2/flox2 Schwann cells at P2
Description: (§1) The compounds were tested at 10 uM in 8 replicates in a 384-well format using the live cell protease assay (CellTiter-Fluor) and the orthogonal ATP-based assay (CellTiter-GLO) (both from Promega). We tested the compounds on two Merlin-null Schwann cell lines, L1, (used in the LOPAC screen) at passages ranging from 13-23 and an independently-derived line, L2, tested at passage 20 and 21.

[2] = tested on: merlin-null Schwann cells; assay: Primary assay: live cell protease assay (CellTiter-Fluor), cell viability; settings: 10 uM; 8 replicates, 384 well plate; mean and SD of four assays, two independently derived merlin-null Schwann cell lines at P13-23
Description: Cell viability was measured with the CellTiter-Fluor Live Protease Assay (Promega). […] One way ANOVA Kurskal-Wallis test was used with a Dunn's Multiple Comparison post-test.
as §1

[3] = tested on: merlin-null Schwann cells; assay: Orthogonal ATP-based luminescence cell viability assay (CellTiter-GLO); settings: 10 uM; average of two assays with one cell line at P18-23

| Compound | Selectivity Assay, cell viability [1] | Primary Assay (m +/− sd), cell viability [2] | Orthogonal Assay Average of two, cell viability [3] |
| --- | --- | --- | --- |
| CSc1ccc2c(c1)N(CCC1CCCCN1C)c1ccccc1S2 (centres unmarked) [Thioridazine hydrochloride, thioridazine] | 33 % of DMSO Control | 71 +/− 13 % of DMSO Control | 67.9 % of DMSO Control |
| O=C1Nc2ccc(I)cc2C1=Cc1cc(Br)c(O)c(Br)c1 [GW5074, 3-(3,5-Dibromo-4-hydroxybenzyliden)-5-iodo-1,3-dihydroindol-2-one] | 31 % of DMSO Control | 24 +/− 7 % of DMSO Control | 36.4 % of DMSO Control |
| O=C(O)c1ccc2ccccc2c1O.OCc1cc(C(O)CNCCCCCCOCCCCc2ccccc2)ccc1O (centres unmarked) [Salmeterol xinafoate, salmeterol xinafoate] | 57 % of DMSO Control | 57 +/− 9 % of DMSO Control | 73.7 % of DMSO Control |
| CC[n+]1c(C=CC=C2N(C)c3ccccc3C2(C)C)sc2ccccc21.[I-] [AC-93253 iodide, 2-[3-(1,3-Dihydro-1,3,3-trimethyl-2H-indol-2-ylidene)-1-propenyl]-3-ethyl-benzothiazolium iodide] | 28 % of DMSO Control | 41 +/− 6 % of DMSO Control | 24.3 % of DMSO Control |
| COc1ccc(Br)cc1S(=O)(=O)NC(=O)/C=C/c1ccccc1Cc1ccc2ccccc2c1 [L-798106, (2E)-N-[(5-bromo-2-methoxyphenyl)sulfonyl]-3-[2-(2-naphthalenylmethyl)phenyl]-2-propenamide] | 33 % of DMSO Control | 35 +/− 13 % of DMSO Control | 37.6 % of DMSO Control |
| CN1CCN(CCCN2c3ccccc3Sc3ccc(C(F)(F)F)cc32)CC1 [Trifluoperazine dihydrochloride, trifluoperazine] | 47 % of DMSO Control | 78 +/− 6 % of DMSO Control | 47 % of DMSO Control |
| CCn1cnc2c(Nc3cccc(Cl)c3)nc(N[C@@H]3CCCC[C@@H]3N)nc21 (relative stereo) [CGP-74514A hydrochloride, N2-(cis-2-Aminocyclohexyl)-N6-(3-chlorophenyl)-9-ethyl-9H-purine-2,6-diamine hydrochloride] | 33 % of DMSO Control | 35 +/− 7 % of DMSO Control | 16.1 % of DMSO Control |
| CC(C)c1ccc2c(c1)c(SC(C)(C)C)c(CC(C)(C)C(=O)O)n2Cc1ccc(Cl)cc1 [L663,536, 3-[3-tert-Butylthio-1-(4-chlorobenzyl)-5-isopropyl-1H-indol-2-yl]-2,2-dimethylpropionic acid, sodium salt hydrate] | 31 % of DMSO Control | 16 +/− 3 % of DMSO Control | 0.1 % of DMSO Control |
| O=C1c2c(O)ccc(O)c2C(=O)c2c(NCCNCCO)ccc(NCCNCCO)c21 [Mitoxantrone dihydrochloride, 1,4-Dihydroxy-5,8-bis[[2-[(2-hydroxyethyl)amino]ethyl]amino]-9,10-anthracenedione] | 34 % of DMSO Control | 39 +/− 6 % of DMSO Control | 36.8 % of DMSO Control |
| CC(C)(C)c1ccc(C(=O)CCCN2CCC(OC(c3ccccc3)c3ccccc3)CC2)cc1 [Ebastine, ebastine] |  | 17 +/− 3 % of DMSO Control | 0.1 % of DMSO Control |
| CC[C@H](C)C(=O)O[C@H]1CCC=C2C=C[C@H](C)[C@H](CC[C@@H]3C[C@@H](O)CC(=O)O3)[C@H]21 [Mevastatin, mevastatin] | 74 % of DMSO Control | 81 +/− 11 % of DMSO Control | 85.1 % of DMSO Control |
| O=C(CCCN1CCC2(CC1)C(=O)NCN2c1ccccc1)c1ccc(F)cc1 [Spiroperidol] | 85 % of DMSO Control | 90 +/− 6 % of DMSO Control | 84.3 % of DMSO Control |
| COCC(=O)O[C@]1(CCN(C)CCCc2nc3ccccc3[nH]2)CCc2cc(F)ccc2[C@@H]1C(C)C [Mibefradil dihydrochloride hydrate, mibefradil] | 32 % of DMSO Control | 67 +/− 9 % of DMSO Control | 53.3 % of DMSO Control |
| O=C1Nc2cc(Br)ccc2C1C1Nc2ccccc2C1NO (centres unmarked) [BIO, (2′Z,3′E)-6-Bromoindirubin-3′-oxime] | 31 % of DMSO Control | 20 +/− 8 % of DMSO Control | 0.8 % of DMSO Control |
| O=C(CCCN1CCC(O)(c2ccc(Cl)cc2)CC1)c1ccc(F)cc1 [Haloperidol] | 78 % of DMSO Control | 96 +/− 4 % of DMSO Control | 88.8 % of DMSO Control |
| C[C@@]12C(=O)OC(=O)[C@]1(C)[C@H]1CC[C@@H]2O1 [Cantharidin, cantharidin] | 78 % of DMSO Control | 34 +/− 14 % of DMSO Control | 35.2 % of DMSO Control |
| O=C1NC(=O)/C(=C/c2ccc3nccnc3c2)S1 [AS605240, 5-(6-Quinoxalinylmethylene)-2,4-thiazolidinedione] | 78 % of DMSO Control | 35 +/− 2 % of DMSO Control | 40.1 % of DMSO Control |
| CC(C)(Sc1ccc(CCN(CCCCC2CCCCC2)C(=O)NC2CCCCC2)cc1)C(=O)O [GW7647, (2-(4-(2-(1-Cyclohexanebutyl)-3-cyclohexylureido)ethyl)-phenyl-thio)-2-methyl-propionic acid] | 32 % of DMSO Control | 20 +/− 5 % of DMSO Control | 6.3 % of DMSO Control |
| CCN(CC)CCCCNc1ncc2cc(-c3c(Cl)cccc3Cl)c(NC(=O)NC(C)(C)C)nc2n1 [PD-161570, 1-tert-Butyl-3-[6-(2,6-dichlorophenyl)-2-[[4-(diethylamino)butyl]amino]pyrido[2,3-d]pyrimidin-7-yl]urea] | 47 % of DMSO Control | 60 +/− 12 % of DMSO Control | 62.4 % of DMSO Control |
| OCCN1CCN(CCCN2c3ccccc3Sc3ccc(C(F)(F)F)cc32)CC1 [Fluphenazine dihydrochloride] | 43 % of DMSO Control | 71 +/− 6 % of DMSO Control | 45.6 % of DMSO Control |
